# Measurements: US12172983B2, “EGFR inhibitors” (Blueprint Medicines Corporation, priority 2019, dated 2024)
# Like-named read-outs stand apart in the source and are kept apart here.
# Experiments:
# [1] = tested on: phosphorylation of EGFR (Tyr1068) in NCI-H1975 cell line that harbors the EGFR L858R T790M mutations; assay: NCI-H1975 pEGFR AlphaLISA assay; format: cell-based; conditions: 4-5 hours incubation, read-out: Ext pEGFR H1975
# Summary of the method: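 Phospho-EGFR Tyr1068 AlphaLISA readout: lysates taken from compound-treated H1975 cells (L858R T790M EGFR) after a 4-5 h exposure at 37 °C. Cells had adhered overnight beforehand. IC50 derived by plotting % pEGFR inhibition against log compound concentration.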
# EGFR (L858R T790M C797S) = target: T1, EGFR (L858R T790M C797S) (Homo sapiens, UniProt P00533, C797S/L858R/T790M); assay: Biochemical EGFR inhibition assay (Caliper mobility shift), EGFR LRTMCS mutant; conditions: inhibitory activity against EGFR LRTMCS mutant; apparent IC50; read-out: Ext Enz LRTMCS
# T1 construct: purchased SignalChem E10-122VG
# T1 sequence (P00533 25-1210 T790M/C797S/L858R): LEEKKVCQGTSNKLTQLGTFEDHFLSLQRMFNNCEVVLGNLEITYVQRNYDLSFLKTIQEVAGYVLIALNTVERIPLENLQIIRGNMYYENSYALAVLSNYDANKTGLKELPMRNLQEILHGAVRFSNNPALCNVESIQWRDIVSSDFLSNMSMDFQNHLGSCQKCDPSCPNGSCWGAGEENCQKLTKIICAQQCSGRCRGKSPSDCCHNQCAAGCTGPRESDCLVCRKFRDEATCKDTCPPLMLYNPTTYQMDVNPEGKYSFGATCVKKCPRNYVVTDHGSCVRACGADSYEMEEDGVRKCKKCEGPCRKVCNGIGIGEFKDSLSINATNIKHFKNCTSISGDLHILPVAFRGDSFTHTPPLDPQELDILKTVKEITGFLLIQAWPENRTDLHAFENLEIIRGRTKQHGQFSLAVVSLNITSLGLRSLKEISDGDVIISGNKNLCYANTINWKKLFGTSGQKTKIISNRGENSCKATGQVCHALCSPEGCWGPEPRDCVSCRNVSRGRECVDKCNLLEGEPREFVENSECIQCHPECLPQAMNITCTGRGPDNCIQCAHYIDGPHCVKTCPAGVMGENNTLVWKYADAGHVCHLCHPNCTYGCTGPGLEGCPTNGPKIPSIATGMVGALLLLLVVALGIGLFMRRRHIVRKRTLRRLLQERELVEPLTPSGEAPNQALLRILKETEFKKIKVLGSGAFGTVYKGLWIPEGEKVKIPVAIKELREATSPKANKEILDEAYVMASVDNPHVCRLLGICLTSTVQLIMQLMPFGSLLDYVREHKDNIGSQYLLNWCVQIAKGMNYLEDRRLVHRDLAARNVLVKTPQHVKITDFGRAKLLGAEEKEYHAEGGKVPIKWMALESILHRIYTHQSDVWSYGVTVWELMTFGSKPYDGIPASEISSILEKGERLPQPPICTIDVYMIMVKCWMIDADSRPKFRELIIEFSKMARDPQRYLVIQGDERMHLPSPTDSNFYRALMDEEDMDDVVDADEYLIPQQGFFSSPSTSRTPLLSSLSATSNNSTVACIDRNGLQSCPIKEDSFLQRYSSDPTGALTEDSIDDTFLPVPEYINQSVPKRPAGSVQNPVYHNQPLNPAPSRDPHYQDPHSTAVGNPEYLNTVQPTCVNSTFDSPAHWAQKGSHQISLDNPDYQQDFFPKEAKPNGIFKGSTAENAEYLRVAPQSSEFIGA
# Summary of the method: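 Kinase reactions proceed at 25° C. to 10%–20% conversion of total peptide, are terminated with 35 mM EDTA, and the phosphopeptide is resolved from substrate by electrophoretic mobility shift. Apparent IC50 values come from plotting percent activity against log compound concentration.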
# [2] = Homo sapiens, NCI-H1975, inhibition of phosphorylation of mutant EGFR in NCI-H1975 cells
# [3] = inhibition of phosphorylation of mutant EGFR in NCI-H1975 cells
"IC50 [1, 2] [nM]",IC50 (EGFR (L858R T790M C797S)) [nM],"IC50 [1, 3] [nM]",SMILES
≤ 10,≤ 15,,"C[C@@H]1[C@@H](CS(C)(=O)=O)CN1c1ccc(C2CC2)c2cc(Nc3ccnc(N4CC[C@@H](O)[C@@](C)(F)C4)n3)ncc12 (single isomer, unassigned) [Compound 90]"
≤ 10,≤ 15,,"CCS(=O)(=O)CC1CN(c2ccc(C(C)C)c3cc(Nc4ccnc(N5CC[C@@H](OC)[C@@H](O)C5)n4)ncc23)C1 (single isomer, unassigned) [Compound 91, (3S,4R)-1-{4-[(8-{3-[(ethanesulfonyl)methyl]azetidin-1-yl}-5-(propan-2-yl)isoquinolin-3-yl)amino]pyrimidin-2-yl}-4-methoxypiperidin-3-ol or (3R,4S)-1-{4-[(8-{3-[(ethanesulfonyl)methyl]azetidin-1-yl}-5-(propan-2-yl)isoquinolin-3-yl)amino]pyrimidin-2-yl}-4-methoxypiperidin-3-ol]"
,20.1 to 30,10.1 to 20,"CO[C@]1(C)CN(c2nccc(Nc3cc4c(C(C)C)ccc(N5CC(CS(C)(=O)=O)C5)c4cn3)n2)CC[C@@H]1O (single isomer, unassigned) [Compound 95, (3S,4R)-1-[4-({8-[3-(methanesulfonylmethyl)azetidin-1-yl]-5-(propan-2-yl)isoquinolin-3-yl}amino)pyrimidin-2-yl]-3-methoxy-3-methylpiperidin-4-ol or (3R,4S)-1-[4-({8-[3-(methanesulfonylmethyl)azetidin-1-yl]-5-(propan-2-yl)isoquinolin-3-yl}amino)pyrimidin-2-yl]-3-methoxy-3-methylpiperidin-4-ol]"
10.1 to 20,≤ 15,,"CO[C@H]1CN(c2nccc(Nc3cc4c(C(C)C)ccc(N5C[C@H](CS(C)(=O)=O)[C@H]5C)c4cn3)n2)CC[C@@H]1O (single isomer, unassigned) [Compound 98, (3R,4R)-1-[4-({8-[(2R,3S)-3-(methanesulfonylmethyl)-2-methylazetidin-1-yl]-5-(propan-2-yl)isoquinolin-3-yl}amino)pyrimidin-2-yl]-3-methoxypiperidin-4-ol or (3S,4S)-1-[4-({8-[(2R,3S)-3-(methanesulfonylmethyl)-2-methylazetidin-1-yl]-5-(propan-2-yl)isoquinolin-3-yl}amino)pyrimidin-2-yl]-3-methoxypiperidin-4-ol]"
≤ 10,≤ 15,,"CC(C)c1ccc(N2C[C@H](CS(C)(=O)=O)[C@H]2C)c2cnc(Nc3ccnc(N4CC[C@](C)(O)[C@H](O)C4)n3)cc12 (single isomer, unassigned) [Compound 100, (3R,4S)-1-[4-({8-[(2R,3S)-3-(methanesulfonylmethyl)-2-methylazetidin-1-yl]-5-(propan-2-yl)isoquinolin-3-yl}amino)pyrimidin-2-yl]-4-methylpiperidine-3,4-diol or (3S,4R)-1-[4-({8-[(2R,3S)-3-(methanesulfonylmethyl)-2-methylazetidin-1-yl]-5-(propan-2-yl)isoquinolin-3-yl}amino)pyrimidin-2-yl]-4-methylpiperidine-3,4-diol]"

# More lines, now with the values behind:
SMILES,"IC50 [1, 2] [nM]",IC50 (EGFR (L858R T790M C797S)) [nM],"IC50 [1, 3] [nM]"
"CO[C@H]1CCN(c2nccc(Nc3cc4c(C(C)C)ccc(N5C[C@H](CS(C)(=O)=O)[C@H]5C)c4cn3)n2)C[C@@H]1O (single isomer, unassigned) [Compound 92, (3S,4S)-1-(4-(5-isopropyl-8-(2R,3S)-2-methyl-3-(methylsulfonylmethyl)azetidin-1-yl)isoquinolin-3-ylamino)pyrimidin-2-yl)-4-methoxypiperidin-3-ol or (3R,4R)-1-(4-(5-isopropyl-8-((2R,3S)-2-methyl-3-(methylsulfonylmethyl)azetidin-1-yl)isoquinolin-3-ylamino)pyrimidin-2-yl)-4-methoxypiperidin-3-ol]",≤ 10,≤ 15,
"CO[C@@H]1CCN(c2nccc(Nc3cc4c(C(C)C)ccc(N5C[C@H](CS(C)(=O)=O)[C@H]5C)c4cn3)n2)C[C@@H]1O (single isomer, unassigned) [Compound 93, (3S,4R)-1-(4-(5-isopropyl-8-((2R,3S)-2-methyl-3-(methylsulfonylmethyl)azetidin-1-yl)isoquinolin-3-ylamino)pyrimidin-2-yl)-4-methoxypiperidin-3-ol or (3R,4S)-1-(4-(5-isopropyl-8-((2R,3S)-2-methyl-3-(methylsulfonylmethyl)azetidin-1-yl)isoquinolin-3-ylamino)pyrimidin-2-yl)-4-methoxypiperidin-3-ol]",≤ 10,≤ 15,
"CO[C@]1(C)CN(c2nccc(Nc3cc4c(C(C)C)ccc(N5CC(CS(C)(=O)=O)C5)c4cn3)n2)CC[C@@H]1O (single isomer, unassigned) [Compound 94, (3R,4S)-1-[4-({8-[3-(methanesulfonylmethyl)azetidin-1-yl]-5-(propan-2-yl)isoquinolin-3-yl}amino)pyrimidin-2-yl]-3-methoxy-3-methylpiperidin-4-ol or (3S,4R)-1-[4-({8-[3-(methanesulfonylmethyl)azetidin-1-yl]-5-(propan-2-yl)isoquinolin-3-yl}amino)pyrimidin-2-yl]-3-methoxy-3-methylpiperidin-4-ol]",20.1 to 30,≤ 15,
"CO[C@H]1CN(c2nccc(Nc3cc4c(C(C)C)ccc(N5C[C@H](CS(C)(=O)=O)[C@H]5C)c4cn3)n2)CC[C@@H]1O (single isomer, unassigned) [Compound 96, (3S,4S)-1-[4-({8-[(2R,3S)-3-(methanesulfonylmethyl)-2-methylazetidin-1-yl]-5-(propan-2-yl)isoquinolin-3-yl}amino)pyrimidin-2-yl]-3-methoxypiperidin-4-ol or (3R,4R)-1-[4-({8-[(2R,3S)-3-(methanesulfonylmethyl)-2-methylazetidin-1-yl]-5-(propan-2-yl)isoquinolin-3-yl}amino)pyrimidin-2-yl]-3-methoxypiperidin-4-ol]",,20.1 to 30,10.1 to 20
"CO[C@H]1CN(c2nccc(Nc3cc4c(C(C)C)ccc(N5C[C@H](CS(C)(=O)=O)[C@H]5C)c4cn3)n2)CC[C@H]1O (single isomer, unassigned) [Compound 97, (3S,4R)-1-[4-({8-[(2R,3S)-3-(methanesulfonylmethyl)-2-methylazetidin-1-yl]-5-(propan-2-yl)isoquinolin-3-yl}amino)pyrimidin-2-yl]-3-methoxypiperidin-4-ol or (3R,4S)-1-[4-({8-[(2R,3S)-3-(methanesulfonylmethyl)-2-methylazetidin-1-yl]-5-(propan-2-yl)isoquinolin-3-yl}amino)pyrimidin-2-yl]-3-methoxypiperidin-4-ol]",≤ 10,≤ 15,
"CO[C@@H]1CN(c2nccc(Nc3cc4c(C(C)C)ccc(N5C[C@H](CS(C)(=O)=O)[C@H]5C)c4cn3)n2)CC[C@@H]1O (single isomer, unassigned) [Compound 99, (3R,4S)-1-[4-({8-[(2R,3S)-3-(methanesulfonylmethyl)-2-methylazetidin-1-yl]-5-(propan-2-yl)isoquinolin-3-yl}amino)pyrimidin-2-yl]-3-methoxypiperidin-4-ol or (3S,4R)-1-[4-({8-[(2R,3S)-3-(methanesulfonylmethyl)-2-methylazetidin-1-yl]-5-(propan-2-yl)isoquinolin-3-yl}amino)pyrimidin-2-yl]-3-methoxypiperidin-4-ol]",10.1 to 20,≤ 15,
"CC(C)c1ccc(N2C[C@H](CS(C)(=O)=O)[C@H]2C)c2cnc(Nc3ccnc(N4CC[C@](C)(O)[C@H](O)C4)n3)cc12 (single isomer, unassigned) [Compound 101, (4R)-1-[4-({8-[(2R,3S)-3-(methanesulfonylmethyl)-2-methylazetidin-1-yl]-5-(propan-2-yl)isoquinolin-3-yl}amino)pyrimidin-2-yl]-4-methylpiperidine-3,4-diol or (3S,4R)-1-[4-({8-[(2R,3S)-3-(methanesulfonylmethyl)-2-methylazetidin-1-yl]-5-(propan-2-yl)isoquinolin-3-yl}amino)pyrimidin-2-yl]-4-methylpiperidine-3,4-diol]",,≤ 15,10.1 to 20
"CC(C)c1ccc(N2C[C@H](CS(C)(=O)=O)[C@H]2C)c2cnc(Nc3ccnc(N4CC[C@@](C)(O)[C@H](O)C4)n3)cc12 (single isomer, unassigned) [Compound 102, (3R,4R)-1-[4-({8-[(2R,3S)-3-(methanesulfonylmethyl)-2-methylazetidin-1-yl]-5-(propan-2-yl)isoquinolin-3-yl}amino)pyrimidin-2-yl]-4-methylpiperidine-3,4-diol or (3S,4S)-1-[4-({8-[(2R,3S)-3-(methanesulfonylmethyl)-2-methylazetidin-1-yl]-5-(propan-2-yl)isoquinolin-3-yl}amino)pyrimidin-2-yl]-4-methylpiperidine-3,4-diol]",20.1 to 30,≤ 15,
"CO[C@@H]1CCN(c2nccc(Nc3cc4c(C(C)C)ncc(N5C[C@H](CS(C)(=O)=O)[C@H]5C)c4cn3)n2)C[C@@H]1O (single isomer, unassigned) [Compound 103, (3S,4R)-1-(4-(5-isopropyl-8-((2R,3S)-2-methyl-3-(methylsulfonylmethyl)azetidin-1-yl)-2,6-naphthyridin-3-ylamino)pyrimidin-2-yl)-4-methoxypiperidin-3-ol or (3R,4S)-1-(4-(5-isopropyl-8-((2R,3S)-2-methyl-3-(methylsulfonylmethyl)azetidin-1-yl)-2,6-naphthyridin-3-ylamino)pyrimidin-2-yl)-4-methoxypiperidin-3-ol]",10.1 to 20,≤ 15,
